Assay results published in the NIST ThermoML archive (doi:10.1016/j.jct.2008.12.002).

Experiment: xn = mol fraction of the nth substance listed
Conditions: 101 kPa, Liquid, Vibrating tube method

CCCCn1cc[n+](C)c1.F[B-](F)(F)F [1-butyl-3-methylimidazolium tetrafluoroborate] + OCCO
mass density [kg/m3]
Conditions	298.15 K	308.15 K	318.15 K
x1 = 0.0266	1116.7	1109.4	1102.2
x1 = 0.0766	1127.3	1119.9	1112.5
x1 = 0.1017	1131.9	1124.4	1116.9
x1 = 0.1678	1142.4	1134.7	1126.9
x1 = 0.2425	1152.1	1144.1	1136.2
x1 = 0.3825	1166	1157.8	1149.7
x1 = 0.4389	1170.5	1162.4	1154.3
x1 = 0.5207	1176.4	1168.3	1160.3
x1 = 0.6049	1181.7	1173.7	1165.8
x1 = 0.7196	1188.1	1180.4	1172.7
x1 = 0.8106	1192.7	1185.1	1177.6
x1 = 0.8978	1196.8	1189.4	1182.1
x1 = 1	1201.2	1194	1186.9

CCCCCCCCOS(=O)(=O)[O-].CCCCn1cc[n+](C)c1 [1-butyl-3-methylimidazolium octyl sulfate] + OCCO
mass density [kg/m3]
Conditions	298.15 K	308.15 K	318.15 K
x1 = 0.0003	1109.9	1102.8	1095.5
x1 = 0.0008	1109.8	1102.6	1095.3
x1 = 0.0012	1109.6	1102.5	1095.2
x1 = 0.0017	1109.5	1102.4	1095.1
x1 = 0.002	1109.4	1102.3	1095
x1 = 0.0038	1108.8	1101.7	1094.4
x1 = 0.007	1107.8	1100.7	1093.4
x1 = 0.0119	1106.3	1099.2	1092
x1 = 0.0174	1104.7	1097.7	1090.5
x1 = 0.0258	1102.5	1095.5	1088.2
x1 = 0.0508	1096.8	1089.8	1082.6
x1 = 0.19	1079.9	1072.9	1065.9
x1 = 0.301	1074.2	1067.3	1060.4
x1 = 0.3712	1072.2	1065.3	1058.4
x1 = 0.4591	1070.5	1063.6	1056.8
x1 = 0.5435	1069.4	1062.7	1055.9
x1 = 0.6225	1068.7	1062.1	1055.4
x1 = 0.7366	1068.2	1061.5	1054.9
x1 = 0.8073	1067.9	1061.3	1054.8
x1 = 0.9007	1067.7	1061.2	1054.6
x1 = 1	1067.6	1061	1054.5

CCCCCCCC[n+]1ccn(C)c1.F[B-](F)(F)F [1-methyl-3-octylimidazolium tetrafluoroborate] + OCCO
mass density [kg/m3]
Conditions	298.15 K	308.15 K	318.15 K
x1 = 0.0027	1109.9	1102.8	1095.7
x1 = 0.0046	1109.7	1102.7	1095.4
x1 = 0.0081	1109.5	1102.4	1095.2
x1 = 0.0151	1109	1101.9	1094.6
x1 = 0.0316	1108	1100.8	1093.4
x1 = 0.0614	1106.4	1099.2	1091.7
x1 = 0.083	1105.4	1098	1090.6
x1 = 0.1341	1103.5	1096	1088.6
x1 = 0.2026	1101.7	1094	1086.8
x1 = 0.273	1100.4	1092.7	1085.3
x1 = 0.4125	1099.2	1091.5	1084.2
x1 = 0.5198	1099	1091.3	1084.1
x1 = 0.6306	1099.3	1091.6	1084.5
x1 = 0.7919	1100.3	1092.6	1085.5
x1 = 0.9583	1101.6	1094	1087.1
x1 = 1	1101.9	1094.32	1087.5
